Results on 70 molecules are retold here after PubChem BioAssay AID179 (DTP/NCI, 2004).

Several values for one entry are separate records, joined by “and”; a condition that tells them apart may be missing. Identical values can stand only once. Activity calls are given as the source filed them.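 How the source made its calls: active means compounds giving half or more protection of infected cells from virus-caused growth loss, again on retest; inactive means the rest.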 Where a SMILES comes first, the peptide text is derived from it. The star is where a group is joined. Cbz = O=C(OCc1ccccc1)*; NHNH2 = NN*

This assay concerns CEM cells HIV-1 protection, formazan growth assay. Nature of the assay: NCI AIDS Antiviral Assay. Particulars: for IC50: measured here: growth of uninfected CEM cells. The method in brief: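 Steps: treat uninfected and HIV-1-infected human CEM cells at five drug levels; quantify growth by soluble formazan; retest any compound reaching 50% protection; classify actives from the retest.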

Regarding `NNC(=O)C(CCC(=O)O)NC(=O)C(CCC(=O)O)NC(=O)C(CCC(=O)O)NC(=O)CNC(=O)CNC(=O)OCc1ccccc1` (stereo unspecified) (Cbz-GGEEE-NHNH2; configuration not given here), the EC50 (as a rule, the concentration at which the effect is half-maximal) was > 200 µM and the IC50 (as a rule, the concentration that inhibits the measured activity by half) was > 200 µM.

Take `CN(C)CCNc1nc(-c2cccs2)cc(-c2cccs2)n1`: the EC50 was > 759 µM and the IC50 is 6.46 µM.

For `C=CC(C#CC#CCCCCCCC)O[Si](C)(C)C(C)(C)C` (stereo unspecified), the outcome was inactive.

As to `NC(=Nc1ccc(O)cc1)S(=O)(=O)O`, the EC50 is 63.1 µM and the IC50 is 97.7 µM.

With `Cc1nnc(SCC2=C(C(=O)O)N3C(=O)C(NC(=O)Cn4cnnn4)C3SC2)s1` (stereo unspecified), the EC50 is > 200 µM and the IC50 is > 200 µM.

With `CN(C)Cc1c(O)ccc2ccccc12`, the EC50 was > 468 µM and the IC50 came out at 245 µM.

For the molecule `c1cnc(NC(Nc2cnccn2)C2CCCCC2)cn1`, the EC50 is > 240 µM and the IC50 was > 240 µM.

For `CNc1ccc(Cl)cc1S(=O)(=O)c1ccccc1Br`, the EC50 is > 200 µM and the IC50 turned out to be 3.89 µM.

`CC(CCC(N)=O)(CCC(N)=O)[N+](=O)[O-]`: the EC50 is > 200 µM and the IC50 was > 200 µM.

On to `CC(=O)OC1C=C(C=O)C(O)(C=O)C2(C)CCCC(C)(C)C12` (stereo unspecified), for which the EC50 was > 200 µM and the IC50 was determined as 8.13 µM.

In the case of `CCCCC#CCC(C(=O)O)C(=O)O`, the EC50 is > 1260 µM and the IC50 is > 1260 µM.

For `O=C(O)C1(C(=O)O)CC1`, the result was inactive.

For the molecule `O=C1[C@@H]2C(c3ccccc3)=NO[C@@H]2C(=O)N1c1ccc(Cc2ccc(N3C(=O)[C@H]4C(c5ccccc5)=NO[C@H]4C3=O)cc2)cc1`, the EC50 is > 31.6 µM and the IC50 is > 31.6 µM.

Take `COc1ccc(C2SC(N)=Nc3c2c(C)nn3C(=O)c2ccncc2)cc1OC` (stereo unspecified): the half-maximal effective concentration (EC50) is 49 µM and the IC50 was found to be 170 µM.

Turning to `CO[C@H]1/C=C/O[C@@]2(C)Oc3c(C)c(O)c4c(O)c(c(/C=N/N5CCNCC5)c(O)c4c3C2=O)NC(=O)/C(C)=C\C=C\[C@H](C)[C@H](O)[C@@H](C)[C@@H](O)[C@@H](C)C(OC(C)=O)[C@@H]1C` (stereo partly specified), the EC50 is > 200 µM and the half-inhibitory concentration (IC50) was 50.1 µM.

In the case of `Cc1csc2nc3c(cnn3C)c(=S)n12`, the EC50 was > 200 µM and the IC50 amounted to 38.9 µM.

As for `CC(=O)Nc1ccc(/C=C2/SC(=S)N(/C=C(\c3ccccc3)S(=O)Cc3ccccc3)C2=O)cc1` (stereo unspecified), the EC50 was > 200 µM and the IC50 stood at 89.1 µM.

`CC(=O)OC(C#N)CC(C)(C)/[N+]([O-])=[N+](\[O-])C(C)(C)CC(C#N)OC(C)=O` (stereo unspecified): the EC50 is > 20 µM and the IC50 stood at 3.63 µM.

For the molecule `CC(=O)/C(N=Nc1ccc(-n2c(C)nc3ccccc3c2=O)cc1)=C(/C)O`, the EC50 is > 200 µM and the 50% inhibitory concentration (IC50) was > 200 µM.

In the case of `C1=CNc2ccccc2N=C1`, the EC50 is > 200 µM and the IC50 was > 200 µM.

`C=C(C)COC(=O)C1C2CC(C3OC23)C1C(=O)OCC(=C)C` (stereo unspecified): the EC50 is > 200 µM and the IC50 turned out to be 112 µM.

For the molecule `CCN1CCC(O)(c2ccccc2)C(C(=O)c2ccccc2)C1` (stereo unspecified), the EC50 is > 646 µM and the IC50 came out at 33.9 µM.

On to `ClC1=NSC(Cl)=NS1`, for which the EC50 is > 53.7 µM and the IC50 was > 53.7 µM.

`CC12NC(=O)NC(=O)N1CCS2` (stereo unspecified): the result was inactive.

With `[O-][n+]1onc2c1/C(=N/O)CCC2`, the EC50 was > 200 µM and the IC50 was > 200 µM.

Turning to `CC(=O)C1CC2(c3ccccc3)C(=O)c3ccccc3N2O1` (stereo unspecified), the EC50 was > 447 µM and the IC50 was 195 µM.

On to `Cc1ccc(C2=Nc3c(N)nc(N)nc3NC(c3ccccc3)C2)cc1` (stereo unspecified), for which the EC50 is > 200 µM; the IC50 was 4.27 µM and 3.72 µM.

On to `COc1ccc(C2=NNC(=O)OC2c2ccccc2)cc1` (stereo unspecified), for which the EC50 was > 63.1 µM and the IC50 came to 7.24 µM.

As for `Nc1ccc2ncc(NCc3ccc(F)cc3)nc2c1`, the EC50 was > 135 µM and the IC50 was 69.2 µM.

With `C/C(=N\NC(=O)C[n+]1ccccc1)c1sc(-c2nc(C)c(/C(C)=N/NC(=O)C[n+]3ccccc3)s2)nc1C`, the EC50 is > 30.2 µM and the IC50 is > 30.2 µM.

With `COC1/C=C\C=C(/C)C(=O)NC2=CC(=O)C(NC3CC3)=C(CC(C)CC(OC)C(O)C(C)/C=C(/C)C1OC(N)=O)C2=O` (stereo unspecified), the outcome was inactive.

`Cc1cc2c(C(C)C)c(O)c(O)c(C=NCCc3ccccc3)c2c(O)c1-c1c(C)cc2c(C(C)C)c(O)c(O)c(C=NCCc3ccccc3)c2c1O`: the EC50 is > 200 µM and the IC50 was 8.71 µM.

As for `CCO[C@@H]1OC(=O)[C@H]2C(c3ccccc3Cl)=NO[C@@H]12`, the EC50 is > 178 µM and the IC50 is > 178 µM.

Take `COC(=O)C(=O)C(C(=O)C(=O)Nc1ccccc1C(N)=O)c1nc2ccc(Cl)cc2[nH]c1=O` (stereo unspecified): the EC50 is > 75.9 µM and the IC50 was > 75.9 µM.

Turning to `O=C1NS(=O)(=O)NC1(c1ccccc1)c1ccccc1`, the result was inactive.

With `O=C1C=CC(=O)c2c(O)c3c(c(O)c21)C[C@H](O)[C@H](O)[C@@H]3O`, the EC50 was > 269 µM and the half-inhibitory concentration (IC50) is 0.389 µM.

On to `COc1ccc(N=Nc2ccc3oc(=O)c(C(=O)Nc4ccc(Cl)cc4)cc3c2)cc1`, for which the EC50 is > 200 µM and the IC50 is 33.1 µM.

With `C[C@]12CC=CC(=O)[C@@]1(C)CCC(=O)C2`, the outcome was inactive.

As to `Cc1cccc(C)c1N=O`, the outcome was inactive.

For the molecule `COC(=O)CCCc1ccc2c(c1)CC1(Cc3ccccc3C1)C2`, the EC50 is > 200 µM and the IC50 is > 200 µM.

For `CC1=NN(c2ccccc2)C(=O)C1N=Nc1ccc(S(=O)(=O)Nc2ncccn2)cc1` (stereo unspecified), the EC50 was > 200 µM and the IC50 was 36.3 µM.

On to `CC1(C)N=C(N)N=C(N)N1c1cccc(/C=C(\C#N)c2ccccc2)c1`, for which the EC50 is > 200 µM and the IC50 came out at 4.79 µM.

As to `C=CCSCn1ncc2ccc([N+](=O)[O-])cc21`, the EC50 is > 200 µM and the IC50 came to 33.9 µM.

On to `N#CC(C(=O)CCC(=O)Nc1ccc(Cl)c(Cl)c1)c1ccccc1` (stereo unspecified), for which the EC50 is > 692 µM and the IC50 is > 692 µM.

`COC(=O)c1c2c(cc3c1CC1(Cc4cc5c(c(C=O)c4C1)CCCC5)C3)CCCC2` (stereo unspecified): the EC50 is > 200 µM and the IC50 turned out to be 24.5 µM.

Consider `Nc1ccc(S(=O)(=O)N/N=C/c2ccco2)cc1`, for which the EC50 was > 676 µM and the IC50 is > 676 µM.

As for `COC1/C=C/OC2(C)Oc3c(C)c(O)c4c(O)c(cc(OCC(=O)N(C)CCCCC(=O)O)c4c3C2=O)NC(=O)/C(C)=C/C=C/C(C)C(O)C(C)C(O)C(C)C(OC(C)=O)C1C` (stereo unspecified), the EC50 was > 200 µM and the IC50 amounted to 19.1 µM.

On to `Cc1cc(NS(=O)(=O)c2ccc(N)cc2)sn1`, for which the EC50 was > 200 µM and the IC50 is > 200 µM.

`O=C1OC(=O)c2cnccc21`: the outcome was inactive.

Consider `O=C(C(=O)c1ccc(Cc2ccc(C(=O)C(=O)c3ccccc3)cc2)cc1)c1ccccc1`, for which the EC50 is > 575 µM and the IC50 is > 575 µM.

Regarding `CCSC1=N/C(=C/c2ccccc2O)C(Cl)=N1`, the EC50 is 50.1 µM and the IC50 was > 200 µM.

In the case of `CCOC(=O)C(c1ccsc1)C(C(=O)OCC)c1cccs1` (stereo unspecified), the EC50 was > 200 µM and the IC50 was > 200 µM.

As for `CC(CCC(C)OS(=O)(=O)c1ccc(F)cc1)OS(=O)(=O)c1ccc(F)cc1` (stereo unspecified), the result was inactive.

Regarding `O=C(O)c1cc(N=Nc2ccc(/C=C/c3ccc(N=Nc4ccc(O)c(C(=O)O)c4)cc3S(=O)(=O)O)c(S(=O)(=O)O)c2)ccc1O`, the EC50 was 22.4 µM and the IC50 is 36.3 µM.

Turning to `COc1cccc(CCn2c(N)c(-c3ccccc3)c3ccc([N+](=O)[O-])cc3c2=O)c1`, the EC50 is > 200 µM and the IC50 was determined as 7.41 µM.

With `CC(C)=NNC1=NC(C)(C)P(=O)(N2CCCC2C(=O)O)S1` (stereo unspecified), the EC50 was > 135 µM and the IC50 is 132 µM.

Turning to `Cc1ccc(S(=O)(=O)OCCn2cnc3nc(NC(=O)c4ccccc4)[nH]c(=O)c32)cc1`, the EC50 is > 57.5 µM and the IC50 is > 57.5 µM.

For the molecule `C=C(C)CC1=C(OCC)C(OC)(OCC)C1=O` (stereo unspecified), the EC50 is > 200 µM and the IC50 is > 200 µM.

For `C#CC(O)/C=C/C(O)CCCC(O)CC#CC(O)C#CC(O)CCCC(O)/C=C/CCCC(=O)CCCCCCCCCCCCCCCC(O)C(O)C#CC(=O)O` (stereo unspecified), the EC50 was 10 µM and the IC50 was 53.7 µM.

Consider `CN1C(=O)C23SSC1(C)C(=O)N2c1ccccc1C3(C)C` (stereo unspecified), for which the EC50 is > 200 µM and the IC50 came to 7.94 µM.

`CN(C(=O)c1ccccc1S)c1ccccc1`: the EC50 is > 200 µM and the IC50 was 20.4 µM.

Take `C(/Cc1ccc2c(c1)OCO2)=N\NC1=NCCN1`: the EC50 is > 200 µM and the IC50 is 117 µM.

Consider `N#Cc1cccc(Nc2ccccc2SSc2ccccc2Nc2cccc(C#N)c2)c1`, for which the EC50 was > 58.9 µM and the IC50 was 4.79 µM.

Take `COC(=O)CNC(=O)C(NC(=O)C1CCCN1C(=O)OCc1ccccc1)C(C)C` (stereo not drawn) (Cbz-Pro-Val-Gly-OMe; configuration not given here): the EC50 is > 224 µM and the IC50 amounted to 37.2 µM.

In the case of `CCC12OCC(C)(C)N1OC(=O)N2c1ccccc1` (stereo unspecified), the EC50 was > 200 µM and the IC50 was > 200 µM.

`O=C1CN2C(c3ccccc3)=NN(c3ccc([N+](=O)[O-])cc3)C2(c2ccccc2)c2cc(Cl)ccc2N1CC1CC1` (stereo unspecified): the EC50 is > 100 µM and the IC50 was > 100 µM.

Turning to `O=C1N=CC2(N=N2)C(=O)N1`, the EC50 was > 200 µM and the IC50 is 15.5 µM.

Take `Cc1nnc2n1-c1ccccc1-c1[nH]c3ccccc3c1C2`: the EC50 was > 200 µM and the IC50 worked out at 22.4 µM.

As to `CN(C)c1ccc(-n2cccc2)cc1`, the EC50 is > 200 µM and the IC50 is > 200 µM.

Take `Cc1cc(C)c(C2=NO[C@@H]3C(=O)N(c4ccc(Cc5ccc(N6C(=O)[C@H]7C(c8c(C)cc(C)cc8C)=NO[C@H]7C6=O)cc5)cc4)C(=O)[C@H]23)c(C)c1`: the EC50 is > 7.59 µM and the IC50 is > 7.59 µM.
